Assay results published in patent US9095535B2, “GABA release-regulating agent in cerebellum” (KOREA INSTITUTE OF SCIENCE AND TECHNOLOGY, priority 2009, dated 2015).

Tests used:
hBest1 = molecular target: T1, hBest1 (Homo sapiens, UniProt O76090); settings: cited from earlier work
T1 sequence (O76090 1-585): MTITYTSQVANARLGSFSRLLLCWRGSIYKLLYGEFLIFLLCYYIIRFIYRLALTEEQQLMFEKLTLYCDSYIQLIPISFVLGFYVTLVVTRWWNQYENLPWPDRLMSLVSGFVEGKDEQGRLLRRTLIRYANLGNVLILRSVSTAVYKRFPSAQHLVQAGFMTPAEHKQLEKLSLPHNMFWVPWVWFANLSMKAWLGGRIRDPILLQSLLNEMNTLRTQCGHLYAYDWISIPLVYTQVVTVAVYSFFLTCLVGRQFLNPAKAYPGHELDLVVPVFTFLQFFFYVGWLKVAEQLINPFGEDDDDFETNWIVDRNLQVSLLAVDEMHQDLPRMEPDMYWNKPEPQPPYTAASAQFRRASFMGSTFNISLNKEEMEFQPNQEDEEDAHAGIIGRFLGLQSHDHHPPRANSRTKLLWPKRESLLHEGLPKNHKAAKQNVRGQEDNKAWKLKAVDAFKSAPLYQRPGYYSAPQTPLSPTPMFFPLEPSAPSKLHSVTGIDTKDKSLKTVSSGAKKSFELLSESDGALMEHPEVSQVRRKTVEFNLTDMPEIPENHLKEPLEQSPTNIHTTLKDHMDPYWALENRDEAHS

GABAc receptors = assay: Patch clamp of GABAc expressing HEK293 cells challenged with 100 μM GABA; assay type: cell-based; settings: 100 μM GABA in absence or presence of 100 μM NFA and 100 μM NPPB
Experimental: FIGS. 7a and 7b show the results when GABAc expressing HEK293 cells were patch clamped and challenged with 100 μM GABA in the absence and presence of 100 μM NFA and 100 μM NPPB; and
In FIGS. 7a and 7b, GABAc expressing HEK293 cells were patch clamped and challenged with 100 μM GABA in the absence or presence of 100 μM NFA and 100 μM NPPB.

Best1 channel = molecular target: T2, Best1 channel (Mus musculus, UniProt O88870); assay type: cell-based; settings: NPPB and NFA at 100 μM; inward current in GABAc sensor cell
T2 construct: mBest1 full-length fragment from pGEM-T easy plasmid (6.65 kb, Promega) was subcloned into pcDNA 3.1; expressed in transfected cells; host or cells: HEK293T (ATCC)
T2 sequence (O88870 1-551 R255K): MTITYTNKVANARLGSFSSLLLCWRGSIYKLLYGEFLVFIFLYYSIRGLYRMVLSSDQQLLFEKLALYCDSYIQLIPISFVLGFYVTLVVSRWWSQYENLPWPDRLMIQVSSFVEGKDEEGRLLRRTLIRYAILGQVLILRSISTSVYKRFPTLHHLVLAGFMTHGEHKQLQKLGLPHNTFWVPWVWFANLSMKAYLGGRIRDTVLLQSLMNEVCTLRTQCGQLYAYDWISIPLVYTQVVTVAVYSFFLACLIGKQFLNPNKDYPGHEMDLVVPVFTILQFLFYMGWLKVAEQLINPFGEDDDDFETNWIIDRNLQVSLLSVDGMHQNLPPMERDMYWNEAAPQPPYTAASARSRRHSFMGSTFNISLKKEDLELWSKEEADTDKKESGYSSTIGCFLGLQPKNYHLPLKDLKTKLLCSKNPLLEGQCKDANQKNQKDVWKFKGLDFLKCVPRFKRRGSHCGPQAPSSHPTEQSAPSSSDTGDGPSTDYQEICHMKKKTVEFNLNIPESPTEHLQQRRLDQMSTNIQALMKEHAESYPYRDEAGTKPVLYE
Text: For Best1 channel to mediate release of GABA, it has to permeate GABA upon channel opening. To test for GABA permeability of Best1 channel, a two-cell sniffer patch technique was developed to directly measure GABA release via Best1 channel in sensor HEK293T cells that express GABAc, and via other channels that are expressed in source HEK293T cells (FIG. 1b).
pIRES-Best1-dsRED plasmid (obtained by cloning Best1 using pIRES-dsRED (Invitrogen)) and GABAc with GFP (obtained by cloning GABAc using pcDNA3.1 (Invitrogen)) were transfected into HEK 293T cells (ATCC) using Effectene transfection reagent (Qiagen). […]
GABA release was induced by a break-though of membrane patch that goes into a whole-cell configuration in the source cell and such the released GABA was monitored and detected by a neighboring sensor cell. Full activation of GABA current was obtained by bath application of 100 μM GABA and the percentage of full activation was calculated (FIGS. 1c and 1d).
Permeated GABA is detected in sensor as an inward current (bottom traces). […] The GABA permeability of said mutant was determined by using cells obtained by transfecting said mutant into HEK293t cell (ATCC). […] The GABA permeability of said AN01 was determined by using cells obtained by transfecting said mutant into HEK293t cell (ACTT).

- GABA release via Best1 (Best1 channel): completely abolished
SMILES: O=C(O)c1cc([N+](=O)[O-])ccc1NCCCc1ccccc1 [NPPB, 5-nitro-2(3-phenylpropylamino)-benzoic acid]
- block of hBest1 Cl− channel (hBest1): readily blocked
- GABA response of GABAc expressing HEK293 cells (GABAc receptors): do not have significant impact
